16 molecules from EPA's ToxValDB 9.5 can be followed below.

The test system of data set [1] is Rattus norvegicus.
Data set [2] concerns Oryctolagus sp. The data set is described as follows: LD0; higher = less toxic. As to conditions: acute; dermal; New Zealand.
Data set [3] concerns Homo sapiens. As to conditions: clinical, oral.
The subject of data set [4] is Gallus sp. The conditions noted are these: repeat dose other; oral.
Data set [5] concerns Mus musculus. The conditions noted are these: repeat dose other; oral.
For data set [6], the system named is Canidae. The conditions noted are these: duration: 3 months, oral, capsule, M/F, Beagle, Atrophic change in prostate.
The subject of data set [7] is Canidae. The conditions noted are these: subchronic; duration: 13 weeks; oral; diet; Beagle.
For data set [8], the system named is Mus musculus. As to conditions: acute; for LD50: injection.
Data set [9] concerns Rattus norvegicus. The conditions noted are these: subchronic, duration: 13 weeks, oral, diet, Crl.
Data set [10] deals with Homo sapiens. The conditions noted are these: clinical, oral, M/F.
Data set [11] concerns Oryctolagus sp. As to conditions: acute; dermal; occlusive; New Zealand.
The test system of data set [12] is Rattus norvegicus. The data set is described as follows: LD0; higher = less toxic. The conditions noted are these: acute.
Data set [13] relates to Rattus norvegicus. The conditions noted are these: repeat dose other; oral.
The test system of data set [14] is Anas platyrhynchos. The conditions noted are these: oral.
The subject of data set [15] is Rattus norvegicus. The conditions noted are these: chronic; for NOAEL: Liver: Toxicity.
The subject of data set [16] is Homo sapiens. The conditions noted are these: clinical; duration: 1 days; inhalation; chamber; M/F; neurological.
Data set [17] concerns Rattus norvegicus. The conditions noted are these: chronic, hepatic; for NOAEL: M/F.
Where [18] appears, read: short-term, duration: 28 days, oral, gavage, Sprague-Dawley.
The mark [19] stands for this setting: subchronic, duration: 13 weeks, oral, diet.

Where only a bound is given, the exact number is not on record here.

Turning to `NC1CCCCC1N` (stereo unspecified) [1,2-Cyclohexanediamine], the LD50 in [1] (acute, oral, gavage, Sprague-Dawley) was determined as 1100 mg. In data set [1] (setting [18]), the LOAEL (commonly the lowest tested level that showed an adverse finding) stood at 250 mg/kg-day and the no-observed-adverse-effect level (NOAEL) – broadly, the highest tested level that showed no adverse finding – was found to be 100 mg/kg-day. Moreover, the no observed adverse effect level (NOAEL) in [1] (subchronic, duration: 13 weeks, oral, gavage, Crj:CD) was 125 mg/kg-day. Moreover, in data set [2], the LD0 stood at 7500 mg/kg.
The molecule `CCC[C@@H]1C[C@@H](C(=O)N[C@@H]([C@H]2O[C@H](SC)[C@H](O)[C@@H](O)[C@H]2O)[C@@H](C)O)N(C)C1` [Lincomycin] returned an NOEL in data set [3] (duration: 12 months, Change in gut flora) of 2.5 mg/kg-day.
Regarding `[Cl][Al]([Cl])[Cl]` [Aluminum chloride], in data set [4], the LOAEL was found to be 44.5 mg/kg-day. In data set [5], this molecule yielded an LOAEL of 19.3 mg/kg-day and a no-observed-adverse-effect level (NOAEL) of 1.93 mg/kg-day.
For the molecule `COC(=O)Nc1nc2ccc(C(=O)c3ccc(F)cc3)cc2[nH]1` [Flubendazole], the NOEL in data set [6] and in data set [6] (subchronic) was 2.5 mg/kg-day throughout.
In the case of `CCCCCCO` [1-Hexanol], the “LOAEL (% diet)” value in data set [7] and in data set [1] (setting [19]) was 1 in each case. Moreover, the “NOAEL (% diet)” value in [7] and in [1] (setting [19]) was greater than 0.5 in each case. Besides, the LD50 in data set [8] (intravenous) was determined as 100 mg/kg. The molecule also showed an LC50 in data set [1] (acute, inhalation) greater than 21 µg/mL. Besides, the no-observed-adverse-effect level (NOAEL) is greater than 3500 mg/m3 in [1] (developmental, inhalation, Sprague-Dawley); greater than 3500 mg/m3 in [1] (reproduction developmental, inhalation, F, Sprague-Dawley); 1240 mg/kg-day in data set [9] (F); 1130 mg/kg-day in data set [9] (M). The NOEL in [9] (F) worked out at 1240 mg/kg-day; in [9] (M) it was 1130 mg/kg-day.
As to `CC(CCc1ccc(O)cc1)NCC(O)c1ccc(O)cc1.Cl` (stereo unspecified) [Ractopamine hydrochloride], the NOEL in data set [3] (M, Changes in cardiovascular function variables) worked out at 0.067 mg/kg-day.
As to `CNC(=O)O/N=C/C(C)(C)SC` [Aldicarb], in data set [10] (cholinesterase inhibition), the LOAEL came out at 0.025 mg/kg-day and the NOAEL was 0.01 mg/kg-day.
As for `ON=C1CCCCC1` [Cyclohexanone oxime], the LD50 in [8] (Intraperitoneal) is 250 mg/kg; in [11], greater than 5000 mg/kg. In [12] (oral, gavage, Fischer 344), the LD0 was greater than 300 mg/kg.
For the molecule `[Ba+2].[OH-].[OH-]` [Barium hydroxide], the LOAEL in data set [4] was 41.7 mg/kg-day; in data set [13], 19.8 mg/kg-day. Also, the NOAEL in data set [4] amounted to 20.8 mg/kg-day.
In data set [3] (Selection of resistant bacterial strains), `CN(C)[C@@H]1C(=O)C(C(N)=O)=C(O)[C@@]2(O)C(=O)C3=C(O)c4c(O)cccc4[C@@](C)(O)[C@H]3C[C@@H]12` [Tetracycline] came in with an NOEL of 0.033 mg/kg-day.
In data set [14], `O=[As][O-].[Na+]` [Sodium arsenite] came in with an LOAEL of 12.8 mg/kg-day and an NOAEL of 5.14 mg/kg-day.
In the case of `CC[C@@H]1CCN[C@H](C(=O)N[C@@H]([C@H]2O[C@H](SC)[C@H](O)[C@@H](O)[C@H]2O)[C@H](C)Cl)C1` [Pirlimycin], the NOEL in data set [3] (capsule, M, Clostridium difficile in stool) is 50 mg.
`OC(O)C(Cl)(Cl)Cl` [Chloral hydrate] returned an LOAEL in [10] (central nervous system depression and gi irritation in humans) of 10.7 mg/kg-day.
Turning to `O=C(O)c1ccc(C(=O)O)cc1` [Terephthalic acid], the NOEL in data set [15] (duration: 2 years, oral, diet, Bladder: Hyperplasia) was determined as 142 mg/kg-day. Moreover, the LD0 in data set [12] (oral) was 2000 mg/kg.
Consider `ClCCl` [Dichloromethane], for which the LOAEL in data set [13] is 50 mg/kg-day; in data set [16] it was 1040 mg/m3; in [17] (duration: 14 weeks, inhalation, unknown), 86.8 mg/m3. In addition, the no observed adverse effect level (NOAEL) stood at 5.85 mg/kg-day in [13]; 174 mg/m3 in data set [17] (duration: 2 years, inhalation, Sprague-Dawley); 6 mg/kg-day in data set [17] (duration: 104 weeks, oral, drinking water, Fischer-344); 695 mg/m3 in data set [15] (duration: 2 years, inhalation, intermittent); 5.85 mg/kg-day in data set [15] (duration: 24 months, oral, drinking water).
Take `SCc1ccccc1` [Benzenemethanethiol]: the LC50 in data set [8] (inhalation, Swiss) is 904 mg/m3. The LD50 in data set [1] (acute, injection, Intraperitoneal, Wistar) is 373 mg/kg; in data set [1] (acute, oral, gavage, Wistar) it was 493 mg/kg. The LD0 in data set [12] (dermal, semiocclusive, Sprague-Dawley) is no less than 2000 mg/kg.
